The record followed here is patent US6635656B1, “Cytotoxic alkaloids halitulin” (Pharma Mar, S.A., priority 1998, dated 2003).

Values after ≈ are worked out from the molar mass of the structure shown. Where two headings read alike, the source gives them in different places.

Data set [1] in a line: Stability observations (light, air, handling). The data set is classed as physicochemical. The note with it: N-oxides, then o-quinolinoquinone, form. The method, then: Halitulin (2) was analyzed for C35H40N4O4 by HREIMS (m/z 580.3054, 100% Δmmu−0.5) confirmed by positive and negative FABMS (m/z 581 and 579, respectively). […] The duplicated part, according to the integration of the proton signals, was determined to be the aromatic portion of the molecule. Comparing the NMR data of the aliphatic part of 2 (Table 1) with haliclorensin (1)^7, together with the COSY, TOCSY, and HMBC data, established their identity. The incorporation of 1 in halitulin was further supported by the two MS fragments at m/z 168 (C11H22N+, 48%) and m/z/399 (MW^+-C12H24N, 90%), resulting from the preferable αβ to the aliphatic nitrogen-atoms^1 fragmentation at C-13,14 and C-12,13 respectively. Determination of the haliclorensin moiety in 2 left C22H14N3O4 (including the adjoining N-atom) with 17 degrees of unsaturation to be accounted for. […] Indeed, acetylation of 2, with a 1:1 mixture of Ac2O/pyridine, overnight at room temperature., afforded a very unstable tetra phenol acetate (3), on the basis of the HREIMS which gave the suitable molecular ion and also four subsequential losses of 42 mass units, and no loss of 60 mass units^13. The four phenol acetate groups were in full agreement with the 1773 cm^−1 IR absorption and the new methyls in the proton NMR. […]

The subject of data set [2] is MEL-28 human melanoma. The data set can be described thus: Cytotoxicity screening against MEL-28 cell culture. Conditions: SK-MEL-28, 72 h, MEL-28 cells, three days of incubation, Crystal Violet. The data set is classed as cell-based. The source says:
(§1) Cell Cultures. Cells were maintained in logarithmic phase of growth in eagle's Minimum Essential Medium, with Earle's Balanced Salts, with […] L-glutamine, with non-essential amino acids, without sodium bicarbonate (EMEM/neaa); supplemented with 10% Fetal Calf Serum (FCS), 10^−2 M sodium bicarbonate and 0,1 g/l penicillin-G+streptomycin sulfate.
(§2) A simple screening procedure has been carried out to determine and compare the antitumor activity of these compounds, using an adapted form of the method described by Bergeron et al. (1984)(1). The antitumor cells employed have been P-388 (suspension culture of a lymphoid neoplasm from DBA/2 mouse), A0549 (monolayer culture of a human lung carcinoma), HT-29 (monolayer culture of a human colon carcinoma) and MEL-28 (monolayer culture of a human melanoma).
(§3) A-549, HT-29 and MEL-28 cells were seeded into 16 mm wells at 2×10^4 cells per well in 1 ml aliquots of MEM 10FCS containing the indicated concentration of drug. A separate set of cultures without drug was seeded as control growth to ensure that cells remained in exponential phase of growth. All determinations were carried out in duplicate. After three days of incubation at 37° C., 10% CO2 in a 98% humid atmosphere, the wells were stained with 0.1% Crystal Violet. An approximately IC50 was determined by comparing the growth in wells with drug to the growth in wells control.

For data set [3], the system named is HT-29 human colon carcinoma. The data set can be described thus: Cytotoxicity screening against HT-29 cell culture. The data set is classed as cell-based. Conditions: HT-29 cells, three days of incubation, Crystal Violet.
Source text: as §1, §2, §3

Data set [4] relates to A-549 human lung carcinoma. Description: Cytotoxicity screening against A-549 cell culture. The data set is classed as cell-based. The note with it: A-549 cells, three days of incubation, Crystal Violet.
Source text: as §1, §2, §3

Data set [5] deals with P-388 murine leukemia. The data set can be described thus: Cytotoxicity screening against P-388 cell culture. It counts as cell-based. The note with it: Mus musculus, P388; P-388 cells, approximate IC50 from growth vs control wells.
Source text: as §1, §2
P-388 cells were seeded into 16 mm wells at 1×10^4 cells per well in 1 ml aliquots of MEM 5FCS containing the indicated concentration of drug. A separate set of cultures without drug was seeded as control growth to ensure that cells remained in exponential phase of growth. All a 98% humid atmosphere, an approximately IC50 was determined by comparing the growth in wells with drug to the growth in wells control.

A short description of data set [6]: Cytotoxic activity, test not specified. It counts as cell-based. The note with it: qualitative statement, cell line not given.

For the compound `CC1CCCCCCCN(CCCn2cc(-c3cc(O)c(O)c4ncccc34)c(-c3cc(O)c(O)c4ncccc34)c2)C1` (centres unmarked) [Halitulin, halitulin], the “stability to light and air” value in data set [1] is “sensitive to light and air”. The IC50 worked out at 0.025 µg/mL (≈ 0.043 µM) in data set [2]; 0.0125 µg/mL (≈ 0.0215 µM) in data set [3]; 0.012 µg/mL (≈ 0.0207 µM) in data set [3] (Homo sapiens, HT-29, 72 h, read-out: IC50); 0.0125 µg/mL (≈ 0.0215 µM) in data set [4]; 0.012 µg/mL (≈ 0.0207 µM) in data set [4] (Homo sapiens, A549, 72 h, read-out: IC50); 0.025 µg/mL (≈ 0.043 µM) in data set [5].
On to `CC1CCCCCN(CCCN)C1` (centres unmarked) [haliclorensin, N-(3′-arninopropyl)-3-methylazacyclodecane], for which the cytotoxic activity entry in data set [6] was “inactive”.

The IC50 is the midpoint of a concentration-inhibition curve.
